Measurements: ChEMBL document CHEMBL1158536, “How well can the Caco-2/Madin-Darby canine kidney models predict effective human jejunal permeability?” (J Med Chem, 2010)

What was measured:
[1] = caco-2
[2] = Absolute bioavailability in human; format: ADME, organism-based; details: in vivo
clinical = details: human
[3] = Dissociation constant, pKa of the compound; format: physicochemical
[4] = Octanol-water partition coefficient, log P of the compound; format: physicochemical
[5] = human

Row | SMILES | Daq [1] [×10⁻⁶ cm2/s] | bioavailability [2] [%] | Papp (clinical) [×10⁻⁶ cm/s] | pKa [3] | logP ([4]; read-out: logP) | logP [4] | permeability [5] [×10⁻⁴ cm/s]
1 | COc1ccc2cc([C@H](C)C(=O)O)ccc2c1 [NAPROXEN] | 8.4 |  |  |  |  |  | 
2 | CC1=C(C(=O)O)N2C(=O)[C@@H](NC(=O)[C@H](N)c3ccccc3)[C@H]2SC1 [CEPHALEXIN ANHYDROUS] | 7 |  |  |  |  |  | 
3 | NS(=O)(=O)c1cc(C(=O)O)c(NCc2ccco2)cc1Cl [FUROSEMIDE] | 7.1 |  |  |  |  |  | 
4 | C[C@H]1O[C@@H](O[C@H]2[C@@H](O)C[C@H](O[C@H]3[C@@H](O)C[C@H](O[C@H]4CC[C@@]5(C)[C@H](CC[C@@H]6[C@@H]5C[C@@H](O)[C@]5(C)[C@@H](C7=CC(=O)OC7)CC[C@]65O)C4)O[C@@H]3C)O[C@@H]2C)C[C@H](O)[C@@H]1O [DIGOXIN] |  | 70 |  |  |  |  | 
5 | N[C@@H](Cc1ccc(O)c(O)c1)C(=O)O [LEVODOPA] | 9 | 100 | 340 | 2.21 | -3 |  | 
6 | CC(C)[C@H](N)C(=O)OCCOCn1cnc2c(=O)[nH]c(N)nc21 [VALACYCLOVIR] | 7.2 | 80 | 166 | 7.4 | -1.04 |  | 
7 | O=c1c(O[C@@H]2O[C@H](CO)[C@@H](O)[C@H](O)[C@H]2O)c(-c2ccc(O[C@@H]3O[C@H](CO)[C@@H](O)[C@H](O)[C@H]3O)c(O)c2)oc2cc(O)cc(O)c12 | 6.1 | 60 | 890 | 6.9 | 3.24 |  | 
8 | O=C(O)Cc1ccccc1Nc1c(Cl)cccc1Cl [DICLOFENAC] |  | 54 |  |  |  |  | 
9 | OC[C@H]1OC(O)[C@H](O)[C@@H](O)[C@@H]1O (stereo not given in full) [DEXTROSE] | 9.4 | 100 | 560 |  | -0.67 |  | 
10 | NC(N)=O [UREA] | 15.5 |  | 140 |  | -1.64 |  | 
11 | O [WATER] | 26.7 |  | 140 |  |  |  | 
12 | COc1ccc2c(c1)c(CC(=O)O)c(C)n2C(=O)c1ccc(Cl)cc1 [INDOMETHACIN] |  | 99 |  |  |  |  | 
13 | N=C(N)NC(=O)c1nc(Cl)c(N)nc1N [AMILORIDE] | 8.4 | 50 | 163 |  | -0.26 |  | 
14 | NS(=O)(=O)c1cc2c(cc1Cl)NCNS2(=O)=O [HYDROCHLOROTHIAZIDE] | 7.5 | 55 | 4 |  | -0.03 |  | 
15 | CC(C)(C)NCC(O)c1cc(O)cc(O)c1 (stereo not given) [TERBUTALINE] | 8.5 |  | 30 | 8.67 | -0.08 |  | 
16 | N=C(N)NCCCNC(=O)[C@@H]1CCCCN1C(=O)[C@@H](CC1CCCCC1)NCC(=O)O [INOGATRAN] |  | 5 |  | 1.6 | -0.6 |  | 
17 | NCCCC[C@H](N[C@@H](CCc1ccccc1)C(=O)O)C(=O)N1CCC[C@H]1C(=O)O [LISINOPRIL ANHYDROUS] |  | 27 |  | 3.16 | -2.86 |  | 
18 | O=C1OC2(c3ccc(O)cc3Oc3cc(O)ccc32)c2ccccc21 [FLUORESCEIN] |  | 99 |  |  |  |  | 
19 | COc1ccc(CCN(C)CCCC(C#N)(c2ccc(OC)c(OC)c2)C(C)C)cc1OC (stereo not given) |  | 84 |  |  |  |  | 
20 | COCCc1ccc(OCC(O)CNC(C)C)cc1 (stereo not given) [METOPROLOL] | 7.9 |  | 90 |  |  |  | 
21 | NC(CO)C(=O)NNCc1ccc(O)c(O)c1O (stereo not given) [BENSERAZIDE] | 8 | 70 | 290 | 6.19 | -1.78 |  | 
22 | C[C@H](N[C@@H](CCc1ccccc1)C(=O)O)C(=O)N1CCC[C@H]1C(=O)O [ENALAPRILAT ANHYDROUS] | 7 | 8 | 10 | 3.2 |  |  | 
23 | N[C@@H](Cc1ccccc1)C(=O)O [PHENYLALANINE] | 9.8 | 100 | 336 | 2.2 |  |  | 
24 | CN1CC(=O)NC1=N [CREATININE] | 11.6 | 80 | 29 | 4.66 |  | -3 | 
25 | CN1C(C(=O)Nc2ccccn2)=C(O)c2ccccc2S1(=O)=O [PIROXICAM] | 7.1 | 100 | 665 |  |  |  | 
26 | NC(=O)N1c2ccccc2C=Cc2ccccc21 [CARBAMAZEPINE] | 8.3 | 90 | 430 |  |  |  | 
27 | CC(C)(C)NCC(O)COc1cccc2c1CC(O)C(O)C2 (stereo not given) [NADOLOL] |  | 30 |  |  |  |  | 
28 | O=C(N[C@H](CO)[C@H](O)c1ccc([N+](=O)[O-])cc1)C(Cl)Cl [CHLORAMPHENICOL] |  | 82 |  |  |  |  | 

Row | SMILES | Daq [1] [×10⁻⁶ cm2/s] | bioavailability [2] [%] | Papp (clinical) [×10⁻⁶ cm/s] | pKa [3] | logP ([4]; read-out: logP) | logP [4] | permeability [5] [×10⁻⁴ cm/s]
29 | CCOC(=O)[C@H](CCc1ccccc1)N[C@@H](C)C(=O)N1CCC[C@H]1C(=O)O | 6.7 | 51 | 157 | 2.92 | -1.39 |  | 
30 | Cc1cc(NC(=O)C2=C(O)c3ccccc3S(=O)(=O)N2C)no1 [ISOXICAM] |  | 100 |  |  |  |  | 
31 | CC(C)NCC(O)COc1cccc2ccccc12 (stereo not given) [PROPRANOLOL] | 8 | 100 |  |  |  |  | 
32 | CC1=C(/C=C/C(C)=C/C=C/C(C)=C/C(=O)O)C(C)(C)CCC1 [TRETINOIN] | 7.5 | 90 | 99 |  |  |  | 
33 | COc1cc(Cc2cnc(N)nc2N)cc(OC)c1OC [TRIMETHOPRIM] |  | 98 |  |  |  |  | 
34 | CC(=O)Nc1ccc(O)cc1 [ACETAMINOPHEN] | 10.2 | 85 |  | 9.63 |  |  | 1.76
35 | CC(C)NCC(O)COc1ccc(CC(N)=O)cc1 (stereo not given) [ATENOLOL] | 7.9 |  |  |  |  |  | 
36 | CC1COc2c(N3CCN(C)CC3)c(F)cc3c(=O)c(C(=O)O)cn1c23 (stereo not given) [OFLOXACIN] |  | 90 |  |  |  |  | 
37 | CCCc1cc(=O)[nH]c(=S)[nH]1 [PROPYLTHIOURACIL] |  | 85 |  |  |  |  | 
38 | CCC[C@@H]1C[C@@H](C(=O)N[C@@H]([C@H]2O[C@H](SC)[C@H](O)[C@@H](O)[C@H]2O)[C@@H](C)O)N(C)C1 [LINCOMYCIN] |  | 25 |  |  |  |  | 
39 | CNC(=C[N+](=O)[O-])NCCSCc1ccc(CN(C)C)o1 [RANITIDINE] | 7.3 | 50 | 27.3 | 2.11 |  |  | 
40 | CC1(C)S[C@@H]2[C@H](NC(=O)[C@H](N)c3ccc(O)cc3)C(=O)N2[C@H]1C(=O)O [AMOXICILLIN] | 6.8 | 45 | 30 |  |  |  | 
41 | C[S+]([O-])CCCCN=C=S (stereo not given) [SULFORAPHANE] | 9.5 | 74 |  |  | 1.68 |  | 18.7
42 | CCCCc1nc(Cl)c(CO)n1Cc1ccc(-c2ccccc2-c2nn[nH]n2)cc1 [LOSARTAN] | 6.4 | 50 | 114 | 2.95 | 3.74 |  | 
43 | CC(C)n1c(/C=C/C(O)CC(O)CC(=O)O)c(-c2ccc(F)cc2)c2ccccc21 (stereo not given) [FLUVASTATIN] | 6.5 | 95 | 238 |  |  |  | 
44 | O=C(O)c1ccccc1O [SALICYLIC ACID] | 10.6 | 100 | 267 |  |  |  | 
45 | Cn1c(=O)c2c(ncn2C)n(C)c1=O [CAFFEINE] |  | 98 |  |  |  |  | 
46 | CC(C)NCC(O)c1ccc(NS(C)(=O)=O)cc1 (stereo not given) [SOTALOL] |  | 95 |  |  |  |  | 
47 | CC(C(=O)O)c1cccc(C(=O)c2ccccc2)c1 (stereo not given) [KETOPROFEN] | 8 |  | 840 |  | 3.16 |  | 
48 | CC(C)C[C@H](N)C(=O)O [LEUCINE] | 10.9 | 100 | 620 | 2.38 |  |  | 
49 | COC1=CC(=O)C[C@@H](C)[C@]12Oc1c(Cl)c(OC)cc(OC)c1C2=O [GRISEOFULVIN] | 6.9 | 95 | 114 |  |  |  | 
50 | C[C@](N)(Cc1ccc(O)c(O)c1)C(=O)O [METHYLDOPA] | 8.8 | 26 | 10 | 2.21 | -3 |  | 
51 | CN/C(=N/CCSCc1nc[nH]c1C)NC#N [CIMETIDINE] | 8.1 | 60 | 26 | 6.76 |  |  | 
52 | CC(C)Cc1ccc(C(C)C(=O)O)cc1 (stereo not given) [IBUPROFEN] |  | 85 |  |  |  |  | 
53 | COc1cc([C@@H]2c3cc4c(cc3[C@@H](O[C@@H]3O[C@@H]5CO[C@@H](C)O[C@H]5[C@H](O)[C@H]3O)[C@H]3COC(=O)[C@H]23)OCO4)cc(OC)c1O [ETOPOSIDE] |  | 52 |  |  |  |  | 
54 | Cc1cc(=O)n(-c2ccccc2)n1C [ANTIPYRINE] | 9.2 | 99 |  | 1.3 |  |  | 2.07
55 | CNCCCN1c2ccccc2CCc2ccccc21 [DESIPRAMINE] | 7.9 | 70 | 440 |  |  |  | 
